Consider 28 molecules from patent publication US20160060260A1, “BROMODOMAIN INHIBITORS FOR TREATING DISEASE” (Board of Regents, The University of Texas System, priority 2014, published 2016).

Each structure is given as a SMILES string. pIC50: −log10 of the molar value.

The target in the experiment is T1, Recombinant human His-tagged Trim24-PHD-bromodomain (Homo sapiens, UniProt O15164).
T1 construct: Recombinant human His-tagged Trim24-PHD-bromodomain (produced in-house); made in house
T1 sequence (O15164 824-1006 limits assumed): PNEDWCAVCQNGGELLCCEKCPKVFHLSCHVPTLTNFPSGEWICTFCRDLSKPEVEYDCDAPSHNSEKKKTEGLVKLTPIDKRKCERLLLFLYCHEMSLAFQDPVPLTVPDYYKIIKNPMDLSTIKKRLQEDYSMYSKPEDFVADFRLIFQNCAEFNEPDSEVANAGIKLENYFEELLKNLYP
The experiment is described as follows: Trim24 AlphaScreen Assay. The conditions noted are these: 5 nM Trim24 protein, 15 nM biotinylated H3K23ac (1-33aa) peptide. It counts as binding. An outline of the steps: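 His-tagged Trim24-PHD-bromodomain, biotinylated H3K23ac (1-33aa) peptide and compound incubated 1 h at room temperature in 50 mM Hepes pH 7.5, 100 mM NaCl, 0.12 mM Triton X-100.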
`CCCOc1cc(OCCCOC)cc(Oc2cc3c(cc2NS(=O)(=O)c2ccc(OC)c(OC)c2)n(C)c(=O)n3C)c1` [Example 138, 3,4-dimethoxy-N-(6-(3-(3-methoxypropoxy)-5-propoxyphenoxy)-1,3-dimethyl-2-oxo-2,3-dihydro-1H-benzo[d]imidazol-5-yl)benzenesulfonamide]: the negative-log IC50 (pIC50) (usually the negative decadic logarithm of the IC50, by convention in mol/L) was 7.00 to 8.00. The value for `Cn1c(=O)n(C)c2cc(Oc3cccc(OCc4ccccc4)c3)c(NS(=O)(=O)c3ccccc3)cc21` [Example 13, N-(6-(3-(benzyloxy)phenoxy)-1,3-dimethyl-2-oxo-2,3-dihydro-1H-benzo[d]imidazol-5-yl)benzenesulfonamide] was < 6.00.

Turning to `CCCOc1cc(OCCCCN)cc(Oc2cc3c(cc2NS(=O)(=O)c2cccc(C(=O)OC)c2)n(C)c(=O)n3C)c1` [Example 252, Methyl 3-({6-[3-(4-aminobutoxy)-5-propoxyphenoxy]-1,3-dimethyl-2-oxo-2,3-dihydro-1H-1,3-benzodiazol-5-yl}sulfamoyl)benzoate], the negative logarithm of the IC50 (pIC50) was 7.00 to 8.00. `Cn1cnc(S(=O)(=O)Nc2cc3c(cc2Oc2cccc(OCc4ccncc4)c2)n(C)c(=O)n3C)c1` [Example 30, N-(1,3-dimethyl-2-oxo-6-(3-(pyridin-4-ylmethoxy)phenoxy)-2,3-dihydro-1H-benzo[d]imidazol-5-yl)-1-methyl-1H-imidazole-4-sulfonamide]: the pIC50 was 6.00 to 7.00. `CCn1nccc1S(=O)(=O)Nc1cc2c(cc1Oc1cccc(OCc3ccccc3)c1)n(C)c(=O)n2C` [Example 42, N-(6-(3-(benzyloxy)phenoxy)-1,3-dimethyl-2-oxo-2,3-dihydro-1H-benzo[d]imidazol-5-yl)-1-ethyl-1H-pyrazole-5-sulfonamide]: the pIC50 was 6.00 to 7.00. Take `Cn1c(=O)n(C)c2cc(Oc3cc(OCCCCCCN)cc(OCC(F)(F)F)c3)c(NS(=O)(=O)c3cccnc3)cc21` [Example 201, N-(6-(3-((6-aminohexyl)oxy)-5-(2,2,2-trifluoroethoxy)phenoxy)-1,3-dimethyl-2-oxo-2,3-dihydro-1H-benzo[d]imidazol-5-yl)pyridine-3-sulfonamide]: the pIC50 was 8.00 to 9.00. For the molecule `Cn1cnc(S(=O)(=O)Nc2cc3c(cc2Oc2cccc(OCC(C)(O)CN)c2)n(C)c(=O)n3C)c1` (stereo not shown) [Example 234, N-{6-[3-(3-amino-2-hydroxy-2-methylpropoxy)phenoxy]-1,3-dimethyl-2-oxo-2,3-dihydro-1H-1,3-benzodiazol-5-yl}-1-methyl-1H-imidazole-4-sulfonamide], the negative-log IC50 (pIC50) was < 6.00. Consider `Cn1c(=O)n(C)c2cc(Oc3cccc(OCC(F)(F)F)c3)c(NS(=O)(=O)c3c[nH]cn3)cc21` [Example 88, N-(1,3-dimethyl-2-oxo-6-(3-(2,2,2-trifluoroethoxy)phenoxy)-2,3-dihydro-1H-benzo[d]imidazol-5-yl)-1H-imidazole-4-sulfonamide], for which the pIC50 was 7.00 to 8.00.

With `CCCOc1cccc(Oc2cc3c(cc2NS(=O)(=O)C2CC2)n(C)c(=O)n3C)c1` [Example 82, N-(1,3-dimethyl-2-oxo-6-(3-propoxyphenoxy)-2,3-dihydro-1H-benzo[d]imidazol-5-yl)cyclopropanesulfonamide], the pIC50 is 6.00 to 7.00.

For `Cn1cnc(S(=O)(=O)Nc2cc3c(cc2Oc2cccc(OCC#N)c2)n(C)c(=O)n3C)c1` [Example 76, N-(6-(3-(cyanomethoxy)phenoxy)-1,3-dimethyl-2-oxo-2,3-dihydro-1H-benzo[d]imidazol-5-yl)-1-methyl-1H-imidazole-4-sulfonamide], the negative-log IC50 (pIC50) was 6.00 to 7.00.

As for `CCCOc1cc(OCCCCCCO)cc(Oc2cc3c(cc2NS(=O)(=O)c2cnn(C)c2C)n(C)c(=O)n3C)c1` [Example 178, N-(6-(3-((6-hydroxyhexyl)oxy)-5-propoxyphenoxy)-1,3-dimethyl-2-oxo-2,3-dihydro-1H-benzo[d]imidazol-5-yl)-1,5-dimethyl-1H-pyrazole-4-sulfonamide], the negative-log IC50 (pIC50) was 7.00 to 8.00. The value for `COc1ccc(S(=O)(=O)Nc2cc3c(cc2Oc2cccc(OCC(F)(F)F)c2)n(C)c(=O)n3C)cn1` [Example 221, N-(1,3-dimethyl-2-oxo-6-(3-(2,2,2-trifluoroethoxy)phenoxy)-2,3-dihydro-1H-benzo[d]imidazol-5-yl)-6-methoxypyridine-3-sulfonamide] was 7.00 to 8.00.

Turning to `COCCCOc1cc(OCCCOC)cc(Oc2cc3c(cc2NS(=O)(=O)c2cn(C)c(C)n2)n(C)c(=O)n3C)c1` [Example 123, N-(6-(3,5-bis(3-methoxypropoxy)phenoxy)-1,3-dimethyl-2-oxo-2,3-dihydro-1H-benzo[d]imidazol-5-yl)-1,2-dimethyl-1H-imidazole-4-sulfonamide], the pIC50 was 7.00 to 8.00. The value for `Cc1n[nH]cc1S(=O)(=O)Nc1cc2c(cc1Oc1cccc(OCc3ccccc3)c1)n(C)c(=O)n2C` [Example 48, N-(6-(3-(benzyloxy)phenoxy)-1,3-dimethyl-2-oxo-2,3-dihydro-1H-benzo[d]imidazol-5-yl)-3-methyl-1H-pyrazole-4-sulfonamide] was 6.00 to 7.00. For the molecule `CCCOc1cc(OCCCCCCN)cc(Oc2cc3c(cc2NS(=O)(=O)c2cccc(C#N)c2)n(C)c(=O)n3C)c1` [Example 190, N-(6-(3-((6-aminohexyl)oxy)-5-propoxyphenoxy)-1,3-dimethyl-2-oxo-2,3-dihydro-1H-benzo[d]imidazol-5-yl)-3-cyanobenzenesulfonamide], the pIC50 is 7.00 to 8.00. With `CCCOc1cc(OCCCCNC)cc(Oc2cc3c(cc2NS(=O)(=O)c2ccc(OC)c(OC)c2)n(C)c(=O)n3C)c1` [Example 249, N-(1,3-dimethyl-6-{3-[4-(methylamino)butoxy]-5-propoxyphenoxy}-2-oxo-2,3-dihydro-1H-1,3-benzodiazol-5-yl)-3,4-dimethoxybenzene-1-sulfonamide], the pIC50 was 7.00 to 8.00. For the molecule `CCCOc1cc(OCCCCN)cc(Oc2cc3c(cc2NS(=O)(=O)c2ccc(OC)c(OC)c2)n(C)c(=O)n3C)c1` [Example 196, N-(6-(3-(4-aminobutoxy)-5-propoxyphenoxy)-1,3-dimethyl-2-oxo-2,3-dihydro-1H-benzo[d]imidazol-5-yl)-3,4-dimethoxybenzenesulfonamide], the negative-log IC50 (pIC50) was 8.00 to 9.00. The value for `CCCOc1cc(OCCCCCCO)cc(Oc2cc3c(cc2NS(=O)(=O)c2cn(C)cn2)n(C)c(=O)n3C)c1` [Example 181, N-(6-(3-((6-hydroxyhexyl)oxy)-5-propoxyphenoxy)-1,3-dimethyl-2-oxo-2,3-dihydro-1H-benzo[d]imidazol-5-yl)-1-methyl-1H-imidazole-4-sulfonamide] was 7.00 to 8.00.

On to `CNCC(C)(O)COc1cccc(Oc2cc3c(cc2NS(=O)(=O)c2cn(C)cn2)n(C)c(=O)n3C)c1` (stereo not shown) [Example 235, N-(6-{3-[2-hydroxy-2-methyl-3-(methylamino)propoxy]phenoxy}-1,3-dimethyl-2-oxo-2,3-dihydro-1H-1,3-benzodiazol-5-yl)-1-methyl-1H-imidazole-4-sulfonamide], for which the negative logarithm of the IC50 (pIC50) was < 6.00. With `CCCOc1cc(OCCCCN)cc(Oc2cc3c(cc2NS(=O)(=O)c2cnn(C)c2C)n(C)c(=O)n3C)c1` [Example 199, N-(6-(3-(4-aminobutoxy)-5-propoxyphenoxy)-1,3-dimethyl-2-oxo-2,3-dihydro-1H-benzo[d]imidazol-5-yl)-1,5-dimethyl-1H-pyrazole-4-sulfonamide], the negative-log IC50 (pIC50) is 7.00 to 8.00. Regarding `CCCOc1cccc(Oc2cc3c(cc2NS(=O)(=O)c2ccccn2)n(C)c(=O)n3C)c1` [Example 168, N-(1,3-dimethyl-2-oxo-6-(3-propoxyphenoxy)-2,3-dihydro-1H-benzo[d]imidazol-5-yl)pyridine-2-sulfonamide], the negative-log IC50 (pIC50) is 7.00 to 8.00.

For the molecule `CCCOc1cccc(Oc2cc3c(cc2NS(=O)(=O)c2cccc4c2OCCO4)n(C)c(=O)n3C)c1` [Example 172, N-(1,3-dimethyl-2-oxo-6-(3-propoxyphenoxy)-2,3-dihydro-1H-benzo[d]imidazol-5-yl)-2,3-dihydrobenzo[b][1,4]dioxine-5-sulfonamide], the pIC50 was 6.00 to 7.00. The value for `COCCOc1cccc(Oc2cc3c(cc2NS(=O)(=O)c2cn(C)c(C)n2)n(C)c(=O)n3C)c1` [Example 53, N-(6-(3-(2-methoxyethoxy)phenoxy)-1,3-dimethyl-2-oxo-2,3-dihydro-1H-benzo[d]imidazol-5-yl)-1,2-dimethyl-1H-imidazole-4-sulfonamide] was 6.00 to 7.00; that for `CCCOc1cccc(Oc2cc3c(cc2NS(=O)(=O)c2cn(C)cn2)n(C)c(=O)n3C)c1Cl` [Example 111, N-(6-(2-chloro-3-propoxyphenoxy)-1,3-dimethyl-2-oxo-2,3-dihydro-1H-benzo[d]imidazol-5-yl)-1-methyl-1H-imidazole-4-sulfonamide] was < 6.00. The value for `Cc1cc(S(=O)(=O)Nc2cc3c(cc2Oc2cccc(OCc4ccccc4)c2)n(C)c(=O)n3C)n(C)n1` [Example 79, N-(6-(3-(benzyloxy)phenoxy)-1,3-dimethyl-2-oxo-2,3-dihydro-1H-benzo[d]imidazol-5-yl)-1,3-dimethyl-1H-pyrazole-5-sulfonamide] was < 6.00; that for `CCCOc1cc(OCCCOC)cc(Oc2cc3c(cc2NS(=O)(=O)c2cnn(C)c2C)n(C)c(=O)n3C)c1` [Example 154] was 7.00 to 8.00. The value for `CCCOc1cc(OCCCCCN)cc(Oc2cc3c(cc2NS(=O)(=O)c2cn(C)cn2)n(C)c(=O)n3C)c1` [Example 197, N-(6-(3-((5-aminopentyl)oxy)-5-propoxyphenoxy)-1,3-dimethyl-2-oxo-2,3-dihydro-1H-benzo[d]imidazol-5-yl)-1-methyl-1H-imidazole-4-sulfonamide] was 7.00 to 8.00. Take `CCCOc1cccc(Oc2cc3c(cc2NS(=O)(=O)c2ccc(OC)cc2)n(C)c(=O)n3C)c1` [Example 171, N-(1,3-dimethyl-2-oxo-6-(3-propoxyphenoxy)-2,3-dihydro-1H-benzo[d]imidazol-5-yl)-4-methoxybenzenesulfonamide]: the negative logarithm of the IC50 (pIC50) is 6.00 to 7.00.
